According to patent publication US10669545B2, “Tumor cell malignant transformation suppressor and anti-tumor agent” (JAPAN SCIENCE AND TECHNOLOGY AGENCY, priority 2015, dated 2020):

What was measured:
Assay type in all cases: cell-based, human
[1] = system: phosphorylated FAK (pFAK); experiment: Western blotting of phosphorylated FAK; settings: siRNA-transfected cells vs siNeg#1; not shown
Source text: Because phosphorylation of focal adhesion kinase (FAK), which is activated at Focal adhesion, has been associated with melanoma malignancy (refer to NPL 19), FAK change by ZIC5 was examined. Furthermore, focusing on Integrin, alpha 6 (ITGA6) and platelet-derived growth factor D (PDGFD) among the Focal adhesion-related genes in the altered genes by Zic5 knockdown, change in cells was examined. Specifically, a level of phosphorylated FAK (pFAK), total FAK (FAK), ITGA6, pro-PDGFD, and β-actin in A375 cells transfected with siZIC5 or siNeg was assessed by western blotting. Western blotting was performed in the same manner as above except that anti-pFAK antibody (manufactured by Signalway Antibody), anti-FAK antibody (manufactured by Acris), anti-β-actin antibody (manufactured by Sigma), anti-ITGA6 antibody (manufactured by GeneTex), and anti-PDGFD antibody (manufactured by Santa Cruz) were used.

A375 cells = experiment: Cell cycle analysis (PI staining, flow cytometry), A375 cells; settings: average value
Experimental: In cell cycle analysis, first, the cells were cultured in serum-free medium for 24 hours and then cultured in media containing 10% FBS for 24 hours. Next, the cells were fixed, stained with propidium iodide (PI), and then flow cytometry analysis (SH800, manufactured by Sony) was performed. The obtained data was analyzed using analysis software, FlowJo (manufactured by TOMY DIGITAL BIOLOGY, Tokyo, Japan). As a result, a sub-G1 population of cells increased in the cells in which Zic5 gene knockdown occurred.
Furthermore, a cell cycle of each cell was examined with respect to A375 cells. An average value (SD) of percentages (%) of cells in G1 population, S population, and G2M population of each cell is shown in Table 9. […] As a result, percentages of cells in the S population and G2M population of A375 cells were reduced by PDGFD gene knockdown.

DU145 cells = experiment: Cell number count, DU145 cells; settings: 0, 2, or 3 days after transfection
Source text: First, DU145 cells were transfected with siZIC5#1, siZIC5#2, siNeg#1, or siNeg#2 described in Table 2 in the same manner as Example 1, and the number of cells 0, 2, or 3 days after transfection was counted. The result of calculating a relative cell number of each cell (the number of cells on 0th day after transfection (before transfection) was set to 1) (n=3) is shown in FIG. 44.
The result of calculating a relative cell number of each cell (the number of cells on 0th day after transfection (before transfection) was set to 1) (n=3) is shown in FIG. 47.

## siPDGFD#1: siRNA for PDGFD gene; targeting sequence CAGGAATTACTCGGTCAATAT (SEQ. NO. 28) (listed as DNA, chemistry not given here)
[1]
  FAK phosphorylation (pFAK level): reduced FAK phosphorylation
A375 cells
  percentage of cells in G1 population: 71.6%
  percentage of cells in G2M population: 18.6%
  percentage of cells in S population: 8.1%
DU145 cells
  relative cell number (0th day set to 1), cell proliferation rate: decreased
